From paper PMC3038857, “Using Nuclear Receptor Activity to Stratify Hepatocarcinogens” (PLoS ONE, 2011)
Read-outs that look alike come from different tables or passages of the source.

Tests used:
[1] = molecular target: T1, ESRRG (estrogen-related receptor gamma) (Homo sapiens, UniProt P62508); assay: ATG_ERRg_TRANS: Factorial reporter gene assay (HepG2); format: cell-based; parameters: scale not given here
T1 construct: expressed in transfected cells; host or cells: HepG2
T1 sequence (P62508 1-458): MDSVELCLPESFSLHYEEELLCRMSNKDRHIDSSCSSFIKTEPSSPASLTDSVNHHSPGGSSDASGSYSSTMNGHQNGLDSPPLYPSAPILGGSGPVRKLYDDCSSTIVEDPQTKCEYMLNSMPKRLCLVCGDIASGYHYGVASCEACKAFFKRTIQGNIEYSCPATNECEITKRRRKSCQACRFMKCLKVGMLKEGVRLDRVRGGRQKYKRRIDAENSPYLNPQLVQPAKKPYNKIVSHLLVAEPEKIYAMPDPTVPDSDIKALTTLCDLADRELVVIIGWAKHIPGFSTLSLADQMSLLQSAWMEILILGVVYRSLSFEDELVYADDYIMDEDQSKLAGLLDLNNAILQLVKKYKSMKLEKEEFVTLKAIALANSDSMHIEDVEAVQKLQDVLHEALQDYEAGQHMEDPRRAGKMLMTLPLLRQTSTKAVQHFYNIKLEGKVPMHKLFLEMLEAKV
Method: (§1) A multiple reporter transcription unit (MRTU) library consisting of 48 transcription factor binding sites was transfected into the HepG2 human liver hepatoma cell line. In addition to the cis-acting reporter genes (CIS), a modification of the approach was used to generate a trans-system (TRANS) with a mammalian one-hybrid assay consisting of an additional 25 MRTU library reporting the activity of nuclear receptor super-family members. […] These assays were performed by Attagene Inc. (Morrisville NC) under contract to EPA.
(§2) In addition to the cis-acting reporter genes (CIS), a modification of the approach was used to generate a trans-system (TRANS) with a mammalian one-hybrid assay consisting of an additional 25 MRTU library reporting the activity of nuclear receptor super-family members. […] Chemicals were then tested in the CIS and TRANS assays at seven concentrations starting at the MTC and followed by three-fold serial dilutions. These assays were performed by Attagene Inc. (Morrisville NC) under contract to EPA. Detailed description of the methods, data and analysis methods for this dataset will be presented in a separate publication.

[2] = molecular target: T2, ESRRA (estrogen-related receptor alpha) (Homo sapiens, UniProt P11474); assay: ATG_ERRa_TRANS: Factorial reporter gene assay (HepG2); format: cell-based; details: scale not given, looks like -log10 of molar active concentration, 0 = no activity
T2 construct: expressed in transfected cells; host or cells: HepG2
T2 sequence (P11474 1-423): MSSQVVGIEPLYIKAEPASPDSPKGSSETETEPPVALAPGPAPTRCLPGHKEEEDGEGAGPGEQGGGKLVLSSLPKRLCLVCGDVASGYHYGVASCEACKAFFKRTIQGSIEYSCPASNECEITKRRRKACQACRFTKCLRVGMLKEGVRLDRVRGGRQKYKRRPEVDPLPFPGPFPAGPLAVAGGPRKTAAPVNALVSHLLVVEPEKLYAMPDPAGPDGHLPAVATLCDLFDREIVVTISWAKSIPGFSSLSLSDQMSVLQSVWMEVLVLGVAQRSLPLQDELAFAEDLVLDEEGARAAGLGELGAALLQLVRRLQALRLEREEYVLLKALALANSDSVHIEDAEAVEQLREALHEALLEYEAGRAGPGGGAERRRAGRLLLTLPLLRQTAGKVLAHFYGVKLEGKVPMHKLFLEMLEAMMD
Method: as §1, §2

[3] = molecular target: T3, FXR (NR1H4) (Homo sapiens, UniProt Q96RI1); assay: ATG_FXR_TRANS: Factorial reporter gene assay (HepG2); format: cell-based; parameters: expressed in transfected cells; host or cells: HepG2; scale not given here; details: scale not given, looks like -log10 of molar active concentration, 0 = no activity
T3 sequence (Q96RI1 1-486): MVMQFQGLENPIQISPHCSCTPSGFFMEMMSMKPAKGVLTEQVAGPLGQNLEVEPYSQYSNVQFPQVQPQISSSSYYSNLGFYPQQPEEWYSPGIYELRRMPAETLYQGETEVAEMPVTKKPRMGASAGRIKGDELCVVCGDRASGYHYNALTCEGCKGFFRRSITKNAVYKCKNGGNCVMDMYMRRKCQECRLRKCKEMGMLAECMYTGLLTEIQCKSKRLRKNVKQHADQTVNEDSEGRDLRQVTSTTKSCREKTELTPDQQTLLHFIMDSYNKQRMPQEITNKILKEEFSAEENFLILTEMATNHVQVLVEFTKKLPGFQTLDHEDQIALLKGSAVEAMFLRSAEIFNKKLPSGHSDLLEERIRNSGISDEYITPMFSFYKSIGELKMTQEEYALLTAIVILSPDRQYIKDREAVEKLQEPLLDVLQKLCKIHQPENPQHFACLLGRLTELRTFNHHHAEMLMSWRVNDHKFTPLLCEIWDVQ
Method: as §1, §2

[4] = molecular target: T3, FXR (NR1H4); assay: NVS_NR_hFXR: Human FXR CDCA (cell-free HTS); format: binding; details: scale not given, looks like -log10 of molar active concentration, 0 = no activity
Excerpt: These are a collection of biochemical assays measuring binding constants and enzyme inhibition values. Chemicals were initially screened at a single concentration in duplicate wells at a concentration of 10 [drawing 63] M for cytochrome P-450 assays and 25 [drawing 64] M for all others. […] These assays were run by Caliper Life Sciences (Hanover, MD) under contract to EPA. Short assay descriptions are available at: http://www.caliperls.com/products/contract-research/in-vitro/.
Cell-free HTS Assays: A collection of biochemical assays measuring binding constants and enzyme inhibition values. […] These assays were run by Caliper Life Sciences (Hanover, MD) under contract to EPA. Short assay descriptions are available at http://www.caliperls.com/products/contract-research/in-vitro/. Values for all endpoints were imported into GeneData Screener (Basel, Switzerland) and normalised to solvent controls from the same plate as the tested compounds and expressed as percent of neutral control. Concentration-response curves were fit in GeneData Screener (Basel, Switzerland) Condeseo module using the Hill equation and AC50 values were determined. […] Detailed description of the methods, data and analysis methods for this dataset are described in a separate publication.

[5] = test system: Mouse Liver; details: ref ToxRefDB, cited from earlier work
[6] = HepG2, scale not given, looks like -log10 of molar active concentration, 0 = no activity
[7] = mouse chronic study, liver, any lesion, coded 6 / Inf / 0, code not explained here

SMILES	ATG_ERRg_TRANS [1, 6]	ATG_ERRa_TRANS [2]	ATG_FXR_TRANS [3]	NVS_NR_hFXR [4]	CHR_Mouse_Liver_1_AnyLesion [5, 7]	other results
COC(=O)c1ccccc1CS(=O)(=O)NC(=O)Nc1nc(OC)cc(OC)n1 [r33]	0	0	0	0		
CC(C)N1C(=O)c2ccccc2NS1(=O)=O [r37]	0	0			6	
COc1ccc(-c2ccccc2)cc1NNC(=O)OC(C)C [r38]	4.469	0	0	0	6	
Cc1c(COC(=O)C2C(/C=C(\Cl)C(F)(F)F)C2(C)C)cccc1-c1ccccc1 (stereo not shown) [r39]			0	0	6	
CC(C)(c1ccc(O)cc1)c1ccc(O)cc1 [r40]	0	0			6	
OB(O)O [r41]	0	0	0	0		
O=C(Nc1ccccc1-c1ccc(Cl)cc1)c1cccnc1Cl [r42]	0	0			6	
CCC(C)n1c(=O)[nH]c(C)c(Br)c1=O (stereo not shown) [r43]	0	0	0	0	6	
N#Cc1cc(Br)c(O)c(Br)c1 [r44]	0	0	0	0	6	
CC(C)N1C(=O)N(c2ccccc2)CS/C1=N\C(C)(C)C [r45]	0	0			6	
CCCCOCN(C(=O)CCl)c1c(CC)cccc1CC [r46]	0	0	0	0		
C=CCOC(=O)C(C)(C)OC(=O)c1cc(-n2c(=O)cc(C(F)(F)F)n(C)c2=O)ccc1Cl [r47]	0	0			6	
CCC(C)Nc1c([N+](=O)[O-])cc(C(C)(C)C)cc1[N+](=O)[O-] (stereo not shown) [r48]	0	0				
CCSC(=O)N(CC(C)C)CC(C)C [r49]	0	0			6	
O=C1C2CC=CCC2C(=O)N1SC(Cl)(Cl)Cl (stereo not shown) [r51]	0	0				
CNC(=O)Oc1cccc2ccccc12 [r52]			0	0	6	
CC1=C(C(=O)Nc2ccccc2)SCCO1 [r53]	0	0	0	0	6	
CCOC(=O)C(Cl)Cc1cc(-n2nc(C)n(C(F)F)c2=O)c(F)cc1Cl (stereo not shown) [r54]			0	0	6	
COc1cc(Cl)c(OC)cc1Cl [r57]	0	0				
N#Cc1c(Cl)c(Cl)c(Cl)c(C#N)c1Cl [r58]			0	0		
CC(C)OC(=O)Nc1cccc(Cl)c1 [r59]	0	0	0	0	6	
COc1nc(C)nc(NC(=O)NS(=O)(=O)c2ccccc2Cl)n1 [r62]	0	0				
COc1nc(C)nc(NC(=O)NS(=O)(=O)c2ccccc2Cl)n1 [r63]	0	0				
Cc1ccccc1CO[C@@H]1C[C@@]2(C(C)C)CC[C@]1(C)O2 [r64]					6	
C#CCC1=C(C)[C@H](OC(=O)[C@H]2[C@H](C=C(C)C)C2(C)C)CC1=O [r249]						CHR_Mouse_Liver_1_AnyLesion ([5]; mouse, chronic study): 6
CCCC1COC(Cn2cncn2)(c2ccc(Cl)cc2Cl)O1 (stereo not shown) [r262]						CHR_Mouse_Liver_1_AnyLesion ([5]; mouse, chronic study): 6
CC(C)=CC1C(C(=O)OCc2coc(Cc3ccccc3)c2)C1(C)C (stereo not shown) [r280]						CHR_Mouse_Liver_1_AnyLesion ([5]; chronic study, mouse liver): 6
CCc1nn(C)c(C(=O)NCc2ccc(C(C)(C)C)cc2)c1Cl [r291]						ATG_ERRg_TRANS ([1]; HepG2 reporter): 5.301
CC(C)Oc1cc(-n2nc(C(C)(C)C)oc2=O)c(Cl)cc1Cl [row 225]						CHR_Mouse_Liver_1_AnyLesion ([5]; chronic mouse study, liver): 6
